Reference: US20250215039A1, “NUCLEOSIDES FOR TREATING CANCER” (PRIMEFOUR THERAPEUTICS, INC., priority 2022, published 2025)
pIC50: −log10 of the molar value. Where two headings read alike, the source gives them in different places.

Tested on: cancer cell lines
Test: Cancer cell proliferation activity (CellTiterGlo, 72 h)
Assay type: cell-based
Conditions: 72 h, 72 h, read-out: IC50
Experimental: Dose response relationships on cell proliferation was assessed for representative Compounds of the Disclosure on cancer cell lines. Briefly, compound treatment of cells started one day after seeding with a final DMSO concentration of 0.1%, and was performed by nanodrop-dispensing using a Tecan Dispenser. 0.1% DMSO (solvent) and Staurosporine (10 μM) served as high control (100% viability) and low control (0% viability), respectively.
Cells were cultured in the appropriate media. For the assays, cells were seeded in white cell culture-treated flat and clear bottom multiwell plates and incubated at 37° C. overnight before compound was added. After incubation for 72 h at 37° C. at 5% or 10% CO2 dependent on the medium, cell plates were equilibrated to room temperature for one hour, CellTiterGlo reagent (Promega) was added and luminescence was measured approximately an hour later using a luminometer.
Raw data were converted into percent cell viability relative to the high and low control, which were set to 100% and 0%, respectively.
The IC50 values are summarized in Tables 9A-1, Table 10A, and Table 10B.

pIC50 (5637 cell line (bladder)): 5.30
pIC50 (CLS439 cell line (bladder)): < 4.30
pIC50 (HS729 cell line (muscle)): 5.31
pIC50 (JAR cell line (placenta)): < 4.30
pIC50 (U20S cell line, bone): < 4.30
pIC50 (Homo sapiens, 22Rv1, 72 h, 22RV1 cell line (prostate)): < 4.30
pIC50 (Homo sapiens, 786-0, 72 h, 786O cell line (kidney)): < 4.30
pIC50 (Homo sapiens, A204, 72 h, A204 cell line (muscle)): 5.96
pIC50 (Homo sapiens, A549, 72 h, A549 cell line, lung): 5.48
pIC50 (Homo sapiens, A673, 72 h, A673 cell line (bone)): < 4.30
pIC50 (Homo sapiens, A2780, 72 h, A2780 cell line (ovary)): < 4.30
pIC50 (Homo sapiens, A-375, 72 h, A375 cell line (skin)): 5.34
pIC50 (Homo sapiens, A-431, 72 h, A431 cell line (skin)): < 4.30
pIC50 (Homo sapiens, ACHN, ACHN cell line (kidney)): < 4.30
pIC50 (Homo sapiens, ASPC1, 72 h, ASPC1 cell line (pancreas)): < 4.30
pIC50 (Homo sapiens, BT-20, 72 h, BT20 cell line (breast)): < 4.30
pIC50 (Homo sapiens, BXPC-3, 72 h, BXPC3 cell line (pancreas)): < 4.30
pIC50 (Homo sapiens, C-33-A, C33A cell line, endometrial): 5.57
pIC50 (Homo sapiens, CAKI-1, 72 h, CAKI1 cell line (kidney)): 5.49
pIC50 (Homo sapiens, COLO 205, 72 h, COLO205 cell line (colon)): 5.64
pIC50 (Homo sapiens, COLO-678, 72 h, COLO678 cell line (colon)): < 4.30
pIC50 (Homo sapiens, Ca-Ski, CASKI cell line, endometrial): < 4.30
pIC50 (Homo sapiens, Caco-2, 72 h, CACO2 cell line (colon)): < 4.30
pIC50 (Homo sapiens, Calu-6, 72 h, CALU6 cell line (lung)): 5.22
pIC50 (Homo sapiens, DLD-1, 72 h, DLD1 cell line (colon)): < 4.30
pIC50 (Homo sapiens, DU-145, 72 h, DU145 cell line (prostate)): < 4.30
pIC50 (Homo sapiens, EFO-21, 72 h, EFO21 cell line (ovary)): < 4.30
pIC50 (Homo sapiens, EJ-28, 72 h, EJ28 cell line (bladder)): < 4.30
pIC50 (Homo sapiens, Granta-519, 72 h, GRANTA-519 cell line (hematological)): 5.97
pIC50 (Homo sapiens, HCT-15, 72 h, HCT15 cell line (colon)): < 4.30
pIC50 (Homo sapiens, HCT-116, 72 h, HCT116 cell line (colon)): 5.44
pIC50 (Homo sapiens, HEK293, 72 h, HEK293 cell line (kidney)): 5.46
pIC50 (Homo sapiens, HL-60, 72 h, HL-60 cell line (hematological)): 5.47
pIC50 (Homo sapiens, HT-29, 72 h, HT29 cell line (colon)): < 4.30
pIC50 (Homo sapiens, HT-1080, 72 h, HT1080 cell line (connective tissue)): 5.46
pIC50 (Homo sapiens, HeLa, HELA cell line, endometrial): 5.27
pIC50 (Homo sapiens, HepG2, 72 h, HEPG2 cell line (liver)): < 4.30
pIC50 (Homo sapiens, Hs-578T, HS578T cell line, breast): < 4.30
pIC50 (Homo sapiens, IGROV-1, 72 h, IGROV1 cell line (ovary)): < 4.30
pIC50 (Homo sapiens, IMR-90, 72 h, IMR90 cell line, lung): 5.27
pIC50 (Homo sapiens, J82, 72 h, J82 cell line (bladder)): < 4.30
pIC50 (Homo sapiens, JEG-3, 72 h, JEG3 cell line (placenta)): < 4.30
pIC50 (Homo sapiens, JIMT-1, 72 h, JIMT1 cell line (breast)): 4.93
pIC50 (Homo sapiens, K562, 72 h, K-562 cell line (hematological)): 5.30
pIC50 (Homo sapiens, Kasumi 1, 72 h, KASUMI-1 cell line (hematological)): 6.30
pIC50 (Homo sapiens, L-363, 72 h, L-363 cell line (hematological)): < 4.30
pIC50 (Homo sapiens, LoVo, LOVO cell line (colon)): < 4.30
pIC50 (Homo sapiens, MCF7, 72 h, MCF7 cell line (breast)): 5.59
pIC50 (Homo sapiens, MDA-MB-231, 72 h, MDAMB231 cell line (breast)): 5.53
pIC50 (Homo sapiens, MDA-MB-435, 72 h, MDAMB435 cell line (skin)): < 4.30
pIC50 (Homo sapiens, MDA-MB-436, 72 h, MDAMB436 cell line (breast)): 5.44
pIC50 (Homo sapiens, MDA-MB-468, 72 h, MDAMB468 cell line (breast)): < 4.30
pIC50 (Homo sapiens, MG-63, 72 h, MG63 cell line (bone)): 5.41
pIC50 (Homo sapiens, MHH-ES-1, 72 h, MHHES1 cell line (bone)): 5.31
pIC50 (Homo sapiens, MIA PaCa-2, 72 h, MIAPACA2 cell line (pancreas)): < 4.30
pIC50 (Homo sapiens, MINO, MINO cell line (hematological)): 5.82
pIC50 (Homo sapiens, MV4-11, 72 h, MV4-11 cell line (hematological)): 5.67
pIC50 (Homo sapiens, NCI-H23, 72 h, NCI-H23 cell line (lung)): 5.74
pIC50 (Homo sapiens, NCI-H82, 72 h, NCIH82 cell line (lung)): < 4.30
pIC50 (Homo sapiens, NCI-H292, 72 h, NCIH292 cell line (lung)): 5.27
pIC50 (Homo sapiens, NCI-H460, 72 h, NCIH460 cell line (lung)): < 4.30
pIC50 (Homo sapiens, OVCAR-3, 72 h, OVCAR3 cell line (ovary)): 5.51
pIC50 (Homo sapiens, OVCAR-4, 72 h, OVCAR4 cell line (ovary)): 5.50
pIC50 (Homo sapiens, PANC-1, 72 h, PANC1 cell line (pancreas)): < 4.30
pIC50 (Homo sapiens, PC-3, 72 h, PC3 cell line (prostate)): 5.32
pIC50 (Homo sapiens, PLC-PRF-5, 72 h, PLCPRF5 cell line (liver)): < 4.30
pIC50 (Homo sapiens, Panc1005, 72 h, PANC1005 cell line (pancreas)): < 4.30
pIC50 (Homo sapiens, RD, RD cell line (muscle)): 5.57
pIC50 (Homo sapiens, Ramos, RAMOS cell line (hematological)): 5.85
pIC50 (Homo sapiens, SAOS-2, 72 h, SAOS2 cell line (bone)): 5.77
pIC50 (Homo sapiens, SF-268, 72 h, SF268 cell line (brain)): < 4.30
pIC50 (Homo sapiens, SF-295, 72 h, SF295 cell line (brain)): < 4.30
pIC50 (Homo sapiens, SK-BR-3, 72 h, SKBR3 cell line (breast)): 5.46
pIC50 (Homo sapiens, SK-HEP1, 72 h, SKHEP1 cell line (liver)): 5.52
pIC50 (Homo sapiens, SK-LMS-1, 72 h, SKLMS1 cell line (uterus)): < 4.30
pIC50 (Homo sapiens, SK-MEL-5, 72 h, SKMEL5 cell line, skin): < 4.30
pIC50 (Homo sapiens, SK-MEL-28, 72 h, SKMEL28 cell line (skin)): 5.38
pIC50 (Homo sapiens, SK-N-AS, SKNAS cell line (brain)): 6.02
pIC50 (Homo sapiens, SK-N-SH, SKNSH cell line (brain)): 6.04
pIC50 (Homo sapiens, SK-OV-3, 72 h, SKOV3 cell line (ovary)): 5.61
pIC50 (Homo sapiens, SNB-75, 72 h, SNB75 cell line (brain)): < 4.30
pIC50 (Homo sapiens, SU-DHL10, 72 h, SU-DHL-10 cell line (hematological)): 5.25
pIC50 (Homo sapiens, SU-DHL-6, 72 h, SU-DHL-6 cell line (hematological)): < 4.30
pIC50 (Homo sapiens, SW-620, 72 h, SW620 cell line (colon)): < 4.30
pIC50 (Homo sapiens, T-24, 72 h, T24 cell line (bladder)): < 4.30
pIC50 (Homo sapiens, TE-671, 72 h, TE671 cell line (muscle)): 5.51
pIC50 (Homo sapiens, THP-1, 72 h, THP-1 cell line (hematological)): 5.52
pIC50 (Homo sapiens, U-87 MG, U87MG cell line (brain)): < 4.30
pIC50 (Homo sapiens, UMUC3, 72 h, UMUC3 cell line (bladder)): < 4.30
pIC50 (Homo sapiens, UO-31, 72 h, UO31 cell line (kidney)): < 4.30
pIC50 (Homo sapiens, WSU-NHL, WSU-NHL cell line (hematological)): 5.63
pIC50 (MT-3, 72 h, MT3 cell line (breast)): 5.43
pIC50 (NCI-H358M, NCIH358M cell line (lung)): 5.57
pIC50 (PBMC, PBMC (hematological)): < 4.30
pIC50 (RD-ES, RDES cell line (bone)): < 4.30
Structure (SMILES): C=C[C@]1(CO)O[C@@H](Nc2[nH]c(=O)ncc2Br)C[C@@H]1O [Cpd. No. 3, 5-bromo-6-(((2R,4S,5R)-4-hydroxy-5-(hydroxymethyl)-5-vinyltetrahydrofuran-2-yl)amino)pyrimidin-2(1H)-one]
